Measurements published in US20240368132A1, “ROCK2 INHIBITORS AND USES THEREOF” (President and Fellows of Harvard College, priority 2021, published 2024).

Legend:
[1] = target: T1, ROCK2 (Homo sapiens, UniProt O75116); assay: ROCK2 kinase assay (Reaction Biology Hot Spot kinase assay); type: biochemical; conditions: purified kinase, 33P-ATP (10 μM), P81 filter-binding method
T1 construct: purchased Reaction Biology
Procedure: (§1) ROCK2 and ROCK] kinase assays
(§2) ROCK2 and ROCK1 enzyme potencies were determined by Reaction Biology (www.reactionbiology.com) using their Hot Spot kinase Assay. The base reaction buffer for the assay was 20 mM Hepes (pH 7.5), 10 mM MgCl2, 1 mM EGTA, 0.01% Brij35, 0.02 mg/mL BSA, 0.1 mM Na3VO4, and 2 mM DTT with a 1% DMSO concentration. Required cofactors were added individually to each kinase reaction. The substrate was freshly prepared in the reaction buffer described above, and then cofactors were delivered. The purified kinase was added to the substrate solution and then gently mixed. Compounds were added from 100% DMSO into the kinase reaction mixture by Acoustic technology (Echo550; nanoliter range) and then incubated for 20 min at room temperature. ^33P-ATP (10 μM) was delivered to initiate the reaction, and then the mixture was incubated again for two hours at room temperature. […] Nat. Biotechnol. 2011 Oct. 30; 29(11):1039-45. doi: 10.1038/nbt.2017.
(§3) The compounds were categorized based on IC50 value as “+”, “++”, “+++”, and “++++”. The category “+” refers to compounds with ROCK IC50 value of >10 μM. The category “++” refers to compounds with a ROCK IC50 value of 10 to 3 μM. The category “+++” refers to compounds with ROCK IC50 value of 3 to 0.3 μM. The category “++++” refers to compounds with a ROCK IC50 value of <0.3 μM. “ND” refers to “not determined.” The compound of an “Example Number” is the final product of an Example entitled the Example Number.

[2] = target: T2, ROCK1 (Homo sapiens, UniProt Q13464); assay: ROCK1 kinase assay (Reaction Biology Hot Spot kinase assay); type: biochemical; conditions: purified kinase, 33P-ATP (10 μM), P81 filter-binding method
T2 construct: purchased Reaction Biology
T2 sequence (Q13464 whole entry): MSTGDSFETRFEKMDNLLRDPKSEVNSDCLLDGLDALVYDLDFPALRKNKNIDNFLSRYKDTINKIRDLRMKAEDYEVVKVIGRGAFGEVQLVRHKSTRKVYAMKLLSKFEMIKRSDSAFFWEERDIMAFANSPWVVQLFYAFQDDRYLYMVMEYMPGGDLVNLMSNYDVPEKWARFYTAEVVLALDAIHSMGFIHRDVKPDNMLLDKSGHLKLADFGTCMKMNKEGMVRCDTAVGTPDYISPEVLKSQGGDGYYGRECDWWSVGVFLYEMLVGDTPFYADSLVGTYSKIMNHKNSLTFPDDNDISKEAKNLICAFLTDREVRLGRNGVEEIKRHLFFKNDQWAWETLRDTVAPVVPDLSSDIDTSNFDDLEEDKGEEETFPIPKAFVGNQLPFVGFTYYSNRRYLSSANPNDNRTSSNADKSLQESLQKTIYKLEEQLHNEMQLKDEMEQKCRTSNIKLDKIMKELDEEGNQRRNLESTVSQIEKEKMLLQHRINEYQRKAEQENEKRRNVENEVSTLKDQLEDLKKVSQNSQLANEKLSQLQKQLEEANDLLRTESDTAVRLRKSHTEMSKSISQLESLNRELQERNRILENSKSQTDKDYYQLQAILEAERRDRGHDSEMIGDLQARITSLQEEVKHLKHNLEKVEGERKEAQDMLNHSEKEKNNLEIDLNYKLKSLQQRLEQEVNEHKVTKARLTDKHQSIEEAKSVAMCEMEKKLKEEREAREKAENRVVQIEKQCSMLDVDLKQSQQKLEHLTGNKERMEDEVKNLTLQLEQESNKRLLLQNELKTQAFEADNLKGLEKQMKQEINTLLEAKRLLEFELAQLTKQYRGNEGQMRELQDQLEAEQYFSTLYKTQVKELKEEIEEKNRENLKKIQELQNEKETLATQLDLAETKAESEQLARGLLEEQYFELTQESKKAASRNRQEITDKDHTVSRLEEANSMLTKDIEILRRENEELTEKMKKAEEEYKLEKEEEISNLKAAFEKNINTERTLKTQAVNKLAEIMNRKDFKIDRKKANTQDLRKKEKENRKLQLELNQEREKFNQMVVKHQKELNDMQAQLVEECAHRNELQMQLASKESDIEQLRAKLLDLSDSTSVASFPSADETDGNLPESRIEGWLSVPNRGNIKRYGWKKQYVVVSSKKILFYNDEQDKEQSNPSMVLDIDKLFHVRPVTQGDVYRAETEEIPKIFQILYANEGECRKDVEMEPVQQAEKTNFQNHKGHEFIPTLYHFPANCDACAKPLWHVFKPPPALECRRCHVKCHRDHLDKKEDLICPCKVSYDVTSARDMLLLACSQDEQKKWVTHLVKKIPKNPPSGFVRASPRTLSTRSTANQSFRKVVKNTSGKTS
Procedure: as §1, §2, §3

T1 sequence (O75116 whole entry): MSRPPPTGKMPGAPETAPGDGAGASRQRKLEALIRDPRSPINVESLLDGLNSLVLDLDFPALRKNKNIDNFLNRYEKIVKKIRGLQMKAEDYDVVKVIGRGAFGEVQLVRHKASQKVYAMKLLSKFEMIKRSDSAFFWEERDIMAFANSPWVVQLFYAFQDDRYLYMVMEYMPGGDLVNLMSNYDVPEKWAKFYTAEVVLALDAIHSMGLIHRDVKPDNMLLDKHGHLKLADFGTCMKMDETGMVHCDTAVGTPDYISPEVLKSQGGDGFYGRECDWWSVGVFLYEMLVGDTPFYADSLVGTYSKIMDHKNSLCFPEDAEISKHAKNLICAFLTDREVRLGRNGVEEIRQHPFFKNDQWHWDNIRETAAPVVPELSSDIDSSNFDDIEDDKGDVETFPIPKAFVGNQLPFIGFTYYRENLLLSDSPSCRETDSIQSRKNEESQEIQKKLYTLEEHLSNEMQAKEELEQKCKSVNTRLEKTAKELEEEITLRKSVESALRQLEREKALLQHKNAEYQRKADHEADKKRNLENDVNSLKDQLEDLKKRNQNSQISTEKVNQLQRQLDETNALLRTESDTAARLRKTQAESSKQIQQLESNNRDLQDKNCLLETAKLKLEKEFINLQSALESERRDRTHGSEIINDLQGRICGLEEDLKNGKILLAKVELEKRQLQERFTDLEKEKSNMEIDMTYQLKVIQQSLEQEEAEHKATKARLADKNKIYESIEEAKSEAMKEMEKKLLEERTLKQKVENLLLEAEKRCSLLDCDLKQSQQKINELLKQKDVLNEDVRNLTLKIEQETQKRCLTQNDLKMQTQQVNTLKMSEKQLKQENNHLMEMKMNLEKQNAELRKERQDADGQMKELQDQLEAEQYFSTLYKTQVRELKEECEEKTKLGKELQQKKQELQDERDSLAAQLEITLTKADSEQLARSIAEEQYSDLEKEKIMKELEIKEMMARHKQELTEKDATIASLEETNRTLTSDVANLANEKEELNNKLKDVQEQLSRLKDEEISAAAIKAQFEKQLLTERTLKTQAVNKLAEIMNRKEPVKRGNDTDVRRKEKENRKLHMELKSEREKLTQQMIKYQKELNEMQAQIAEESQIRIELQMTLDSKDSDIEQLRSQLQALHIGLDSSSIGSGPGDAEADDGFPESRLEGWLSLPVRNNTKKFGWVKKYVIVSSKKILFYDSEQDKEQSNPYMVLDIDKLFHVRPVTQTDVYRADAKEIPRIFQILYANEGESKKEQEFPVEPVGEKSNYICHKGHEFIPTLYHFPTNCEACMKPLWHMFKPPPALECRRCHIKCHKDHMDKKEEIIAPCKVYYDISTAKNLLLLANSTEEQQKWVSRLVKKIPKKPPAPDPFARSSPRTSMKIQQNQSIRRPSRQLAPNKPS

IC50 [1] | IC50 [2] | ROCK2 IC50 [1] | SMILES
< 300 nM | > 10000 nM | – | Cn1cc(C(=O)Nc2cccc(-n3nc(Nc4ccc5[nH]ncc5c4Cl)c4ccncc43)c2)cn1 [Example 59]
< 300 nM | < 300 nM | – | Cn1cc(C(=O)Nc2cccc(-n3nc(Nc4ccc5[nH]ncc5c4Cl)c4cccnc43)c2)cn1 [Example 60]
> 10000 nM | < 300 nM | – | O=C(Nc1cccc(-c2noc(Nc3ccc4[nH]ncc4c3Cl)n2)c1)c1ccccc1F [Example 61, N-(3-(5-((4-chloro-1H-indazol-5-yl)amino)-1,2,4-oxadiazol-3-yl)phenyl)-2-fluorobenzamide]
< 300 nM | < 300 nM | – | Cn1cc(C(=O)Nc2cccc(-c3noc(Nc4ccc5[nH]ncc5c4Cl)n3)c2)cn1 [Example 62, N-(3-(5-((4-chloro-1H-indazol-5-yl)amino)-1,2,4-oxadiazol-3-yl)phenyl)-1-methyl-1H-pyrazole-4-carboxamide]
< 300 nM | < 300 nM | – | Cn1cc(C(=O)Nc2cccc(-c3nc(Nc4ccc5[nH]ncc5c4Cl)no3)c2)cn1 [Example 63, N-(3-(3-((4-chloro-1H-indazol-5-yl)amino)-1,2,4-oxadiazol-5-yl)phenyl)-1-methyl-1H-pyrazole-4-carboxamide]
< 300 nM | 300 to 3000 nM | – | O=C(Nc1cccc(-c2nc(Nc3ccc4[nH]ncc4c3Cl)no2)c1)c1ccccc1F [Example 64]
< 300 nM | 300 to 3000 nM | – | Cn1cc(-c2nc3cc(-n4ccc(Nc5ccc6[nH]ncc6c5Cl)n4)ccc3o2)cn1 [Example 65, 4-chloro-N-(1-(2-(1-methyl-1H-pyrazol-4-yl)benzo[d]oxazol-5-yl)-1H-pyrazol-3-yl)-1H-indazol-5-amine]
> 10000 nM | > 10000 nM | – | Cn1cc(-c2nc3cc(-n4nc(Nc5ccc6[nH]ncc6c5Cl)c5ccccc54)ccc3o2)cn1 [Example 66]
< 300 nM | < 300 nM | – | Cn1cc(C(=O)Nc2cc(-c3nnc(Nc4ccc5[nH]ncc5c4Cl)o3)cn(C)c2=O)cn1 [Example 67, N-[5-[5-[(4-chloro-1H-indazol-5-yl)amino]-1,3,4-oxadiazol-2-yl]-1-methyl-2-oxo-3-pyridyl]-1-methyl-pyrazole-4-carboxamide]
< 300 nM | < 300 nM | – | Cn1cc(-n2nc(Nc3ccc4[nH]ncc4c3Cl)c3ccccc32)cc(NC(=O)c2ccccc2F)c1=O [Example 68, N-(5-(3-((4-chloro-1H-indazol-5-yl)amino)-1H-indazol-1-yl)-1-methyl-2-oxo-1,2-dihydropyridin-3-yl)-2-fluorobenzamide]
> 10000 nM | > 10000 nM | – | Cn1cc(C(=O)Nc2cc(-n3nc(Nc4ccc5[nH]ncc5c4Cl)c4ccccc43)cn(C)c2=O)cn1 [Example 69]
300 to 3000 nM | 300 to 3000 nM | – | COc1cc(-n2nc(C(F)(F)F)cc2Nc2ccc3[nH]ncc3c2Cl)ccc1OCC(=O)NC(C)C [Example 70, 2-(4-(5-((4-chloro-1H-indazol-5-yl)amino)-3-(trifluoromethyl)-1H-pyrazol-1-yl)-2-methoxyphenoxy)—N-isopropylacetamide]
< 300 nM | 300 to 3000 nM | – | COc1cc(-c2nnc(Nc3ccc4[nH]ncc4c3Cl)o2)ccc1OCC(=O)NC(C)C [Example 72, 2-[4-[5-[(4-chloro-1H-indazol-5-yl)amino]-1,3,4-oxadiazol-2-yl]-2-methoxy-phenoxy]-N-isopropyl-acetamide]
< 300 nM | 300 to 3000 nM | – | COc1cc(-c2nc(Nc3ccc4[nH]ncc4c3Cl)no2)ccc1OCC(=O)NC(C)C [Example 73, 2-[4-[3-[(4-chloro-1H-indazol-5-yl)amino]-1,2,4-oxadiazol-5-yl]-2-methoxy-phenoxy]-N-isopropyl-acetamide]
< 300 nM | < 300 nM | – | Cn1cc(C(=O)Nc2cccc(-c3cc(Nc4ccc5[nH]ncc5c4Cl)no3)c2)cn1 [Example 74, N-(3-(3-((4-chloro-1H-indazol-5-yl)amino)isoxazol-5-yl)phenyl)-1-methyl-1H-pyrazole-4-carboxamide]
< 300 nM | 300 to 3000 nM | – | CC(C)NC(=O)COc1ccc(-n2ccc(Nc3ccc4[nH]ncc4c3Cl)n2)cc1F [Example 75, 2-(4-(3-((4-chloro-1H-indazol-5-yl)amino)-1H-pyrazol-1-yl)-2-fluorophenoxy)—N-isopropylacetamide]
> 10000 nM | > 10000 nM | – | COC(=O)CN1CCOc2cc(-n3cc(C)c(Nc4ccc5[nH]ncc5c4Cl)n3)ccc21 [Example 76, methyl 2-[7-[3-[(4-chloro-1H-indazol-5-yl)amino]-4-methyl-pyrazol-1-yl]-2,3-dihydro-1,4-benzoxazin-4-yl]acetate]
300 to 3000 nM | 3000 to 10000 nM | – | Cc1cn(-c2ccc3c(c2)OCCN3CC(=O)NC(C)C)nc1Nc1ccc2[nH]ncc2c1Cl [Example 77, 2-[7-[3-[(4-chloro-1H-indazol-5-yl)amino]-4-methyl-pyrazol-1-yl]-2,3-dihydro-1,4-benzoxazin-4-yl]-N-isopropyl-acetamide]
< 300 nM | 300 to 3000 nM | – | Cc1cn(-c2ccc3c(c2)CCN(C(=O)NC(C)C)C3)nc1Nc1ccc2[nH]ncc2c1Cl [Example 78, 6-(3-((4-chloro-1H-indazol-5-yl)amino)-4-methyl-1H-pyrazol-1-yl)-N-isopropyl-3,4-dihydroisoquinoline-2(1H)-carboxamide]
< 300 nM | 3000 to 10000 nM | – | Cc1cn(-c2ccc3c(c2)CCN(C(=O)C2CC2)C3)nc1Nc1ccc2[nH]ncc2c1Cl [Example 79, [6-[3-[(4-chloro-1H-indazol-5-yl)amino]-4-methyl-pyrazol-1-yl]-3,4-dihydro-1H-isoquinolin-2-yl]-cyclopropyl-methanone]
– | > 10000 nM | + + | Cc1cn(-c2ccc3c(c2)CCN(C(=O)C(C)C)C3)nc1Nc1ccc2[nH]ncc2c1Cl [Example 80, 1-[6-[3-[(4-chloro-1H-indazol-5-yl)amino]-4-methyl-pyrazol-1-yl]-3,4-dihydro-1H-isoquinolin-2-yl]-2-methyl-propan-1-one]
> 10000 nM | > 10000 nM | – | Cc1cn(-c2ccc3c(c2)CCN(C(=O)C2CCCC2)C3)nc1Nc1ccc2[nH]ncc2c1Cl [Example 81]
< 300 nM | > 10000 nM | – | Cc1cn(-c2ccc3c(c2)CCN(S(=O)(=O)C2CC2)C3)nc1Nc1ccc2[nH]ncc2c1Cl [Example 82]
< 300 nM | < 300 nM | – | Cc1cn(-c2ccc3c(c2)CCNC3=O)nc1Nc1ccc2[nH]ncc2c1Cl [Example 83, 6-(3-((4-chloro-1H-indazol-5-yl)amino)-4-methyl-1H-pyrazol-1-yl)-3,4-dihydroisoquinolin-1(2H)-one]
< 300 nM | 3000 to 10000 nM | – | Cc1cn(-c2ccc3c(c2)CCN(CC(C)C)C3=O)nc1Nc1ccc2[nH]ncc2c1Cl [Example 84, 6-[3-[(4-chloro-1H-indazol-5-yl)amino]-4-methyl-pyrazol-1-yl]-2-isobutyl-3,4-dihydroisoquinolin-1-one]
< 300 nM | < 300 nM | – | COc1cc(-n2cc(C)c(Nc3ccc4[nH]ncc4c3Cl)n2)ccc1C(=O)NC(C)C [Example 85, 4-(3-((4-chloro-1H-indazol-5-yl)amino)-4-methyl-1H-pyrazol-1-yl)-N-isopropyl-2-methoxybenzamide]
< 300 nM | < 300 nM | – | COc1cc(-n2cc(C)c(Nc3ccc4[nH]ncc4c3Cl)n2)ccc1C(=O)NC1CCN(C)C1 (stereo not drawn) [Example 86]
< 300 nM | 300 to 3000 nM | – | COc1cc(-n2cc(C)c(Nc3ccc4[nH]ncc4c3Cl)n2)ccc1C(=O)NC1CCCC1 [Example 87]
< 300 nM | > 10000 nM | – | COc1cc(-n2cc(C)c(Nc3ccc4[nH]ncc4c3Cl)n2)ccc1C(=O)NCC(F)(F)F [Example 88]
300 to 3000 nM | > 10000 nM | – | COc1cc(-n2cc(C)c(Nc3ccc4[nH]ncc4c3Cl)n2)ccc1C(=O)N1CCCC1 [Example 89]
